Assay [1] deals with HN receptor (HNR; CNTF-R/WSX-1/gp130) on F11 cells. The assay is described as follows: Immunofluorescence-based binding assay (2): biotin-HN / biotin-HNG binding to F11 cells. The arrangement: species or system mouse. As for the experimental part:
A) F11 cells were seeded on 96-well plates coated with poly-L-lysine (7×10^3 cells/well). An indicated amount of biotin-HN or biotin-HNG was added to the cells with or without 10 μM of unlabelled HNG or HNA, followed by a binding assay based on immunofluorescence reaction (2) (left panels). On the other hand, F11 cells were transfected with 0.5 μg of pcDNA3.1/GS-human CNTF-R, pEF1/MycHis-human WSX-1, and 1.0 μg of pCAG-human gp130. At 24 hrs after the transfection, the cells were re-seeded on 96-well plates coated with poly-L-lysine (7×10^3 cells/well). After 36 hrs the re-seeding, an indicated amount of biotin-HN or biotin-HNG was added to the cells with or without 10 μM of unlabeled HNG or HNA, followed by a binding assay based on immunofluorescence reaction (2) (right panels).
B) F11 cells were transfected with 0.5 μg of pRNA-U1.6/Shuttle vector, pRNA-U6.1/Shuttle-WSX-1 siRNA, pRNA-U6.1/Shuttle-CNTF-R siRNA, both pRNA-U6.1/Shuttle-WSX-1 siRNA and pRNA-U6.1/Shuttle-CNTF-R siRNA (0.5 μg each), pRNA-U6.1/Shuttle-FPR2 siRNA or pRNA-U6.1/Shuttle-LIFR siRNA. The total amount of vectors was adjusted to be 1.0 μg by including a backbone vector. At 24 hrs after the transfection, an indicated amount of biotin-HNG was added with or without unlabeled HNG, followed by a binding assay based on immunofluorescence reaction (2) at 72 hrs after the transfection.
E) F11 cells on 6-well plate (7×10^4 cells/well) were transfected with 1.0 μg of pRNA-U6.1/Shuttle vector, pRNA-U6.1/Shuttle-Bax siRNA, or both pRNA-U6.1/Shuttle-WSX-1 siRNA and pRNA-U6.1/Shuttle-CNTF-R siRNA (0.5 μg each). At 72 hrs after the transfection, the cells were added with an indicated amount of biotin-HN with or without unlabeled HN or HNA (100 μM) and subjected to an HN-binding assay based on immunofluorescence.
F11 cells (7×10^4/well in 6-well plates) were replated into 96-well plates (7×10^3 cells/well) at 24 hrs after transfection with indicated amounts of the plasmids encoding mycHis-WSX or V5-CNTF-R, and with PCAG-human gp130 if required. At 36 hrs after transfection, the cells were added with biotin-labeled HN or HNG of indicated concentrations in the presence or the absence of HNG (S14G-HN) or HNA (C8A-HN) of indicated concentrations (Hashimoto et al., 2001 a). After 6 hrs incubation, they were fixed with 4% paraformaldehyde in PBS for 30 min. After washing with PBS, cells were stained with FITC-conjugated avidin (Molecularprobe, Eugene, Oreg., USA). Immunofluorescence intensity was measured (excitation=485 nm, emission=535 nm) with a spectrofluorometer (Wallac1420 ARVOsx Multi Label Counter). Immunohistochemical analysis was done with a laser-scanning, confocal microscope LSM (Carl Zeiss, Germany).

The test system of assay [2] is STAT3. Description: Immunoblot of phosphotyrosine 705 of STAT3 in F11 cells. Type of assay: cell-based. As for the experimental part: E) F11 cells were transfected with an indicated amount of pRNA-U6.1/Shuttle vector (empty), pRNA-U6.1/Shuttle-IL-6R siRNA, or pRNA-U6.1/Shuttle-LIFR siRNA. At 48 hrs after transfection, the cells were treated with 100 ng/ml IL-6, 100 ng/ml CNTF or 1 μM HNG at 37° for 15 min, and harvested. The results of immunoblot analysis using anti-phophoSTAT3 ([…]) antibody and anti-STAT3 antibody were shown in photos. A) F11 cells were added with an indicated amount of HN, HNG or HNA and harvested 15 min later for immunoblot analysis with antibodies recognizing phosphotyrosine 705 of STAT3 or STAT3. The results are shown in photos. B) F11 cells were transfected with 0.5 μg of pRNA-U1.6/Shuttle vector, pRNA-U6.1/Shuttle-WSX-1 siRNA, pRNA-U6.1/Shuttle-CNTF-R siRNA, both pRNA-U6.1/Shuttle-WSX-1 siRNA and pRNA-U6.1/Shuttle-CNTF-R siRNA (0.5 μg each), or pRNA-U6.1/Shuttle-FPR2 siRNA. The total amount of vectors was adjusted to be 1.0 μg by including a backbone vector. […] The results are shown in photos. Cell lysates (10-20 μg/lane) or pulled-down precipitates were subject to SDS-PAGE, and the proteins separated on the gel were transferred onto polyvinylidene difluoride membranes as described (Hashimoto et al, 2000). Visualization of the immunoreactive protein bands was performed by ECL (Amersham Pharmacia Biotech, Uppsala, Sweden).

Peptide text beside a SMILES is read from it.

Experimental findings from patent US8173771B2, “Humanin receptor or humanin-like polypeptide receptor” (Keio Univeristy, priority 2005, dated 2012) are described below.

Regarding `CC[C@H](C)[C@H](NC(=O)[C@H](CCC(=O)O)NC(=O)CNC(=O)[C@@H](NC(=O)[C@H](CC(C)C)NC(=O)[C@H](CC(C)C)NC(=O)[C@H](CC(C)C)NC(=O)[C@H](CC(C)C)NC(=O)[C@H](CS)NC(=O)[C@H](CO)NC(=O)[C@H](Cc1ccccc1)NC(=O)CNC(=O)[C@H](CCCNC(=N)N)NC(=O)[C@@H]1CCCN1C(=O)[C@H](C)NC(=O)[C@@H](N)CCSC)[C@@H](C)O)C(=O)N[C@@H](CC(=O)O)C(=O)N[C@@H](CC(C)C)C(=O)N1CCC[C@H]1C(=O)N[C@H](C(=O)N[C@@H](CCCCN)C(=O)N[C@@H](CCCNC(=N)N)C(=O)N[C@@H](CCCNC(=N)N)C(=O)N[C@@H](C)C(=O)O)C(C)C` [HNG, S14 G-Humanin] (H-MAPRGFSCLLLLTGEIDLPVKRRA-OH; N-terminus and C-terminus assumed), the “binding to F11 cells” value in assay [1] (expression of endogenous CNTF-R and WSX-1 simultaneously decreased by siRNA) is recorded as “almost completely inhibited”; in assay [1] (expression of endogenous CNTF-R or WSX-1 decreased by siRNA), “significantly decreased”. Further, the “phosphorylation of tyrosine 705 of STAT3” value in assay [2] (F11 cells, 15 min) is “increased”; in assay [2] (decrease of expression of endogenous CNTF-R or WSX-1 by siRNA) it was “almost completely inhibited”.
